# In ChEMBL document CHEMBL3865840, “Minimizing CYP2C9 Inhibition of Exposed-Pyridine NAMPT (Nicotinamide Phosphoribosyltransferase) Inhibitors” (J Med Chem, 2016):
# Tests used:
# Cytochrome P450 2C9 = Cytochrome P450 2C9 (Homo sapiens, UniProt P11712)
# [1] = Apparent permeability from basolateral to apical side in MDCK cells at 10 uM by LC/MS/MS analysis; assay type: ADME, cell-based, Canis lupus familiaris; conditions: dog
# [2] = Apparent permeability from apical to basolateral side in MDCK cells at 10 uM by LC/MS/MS analysis; assay type: ADME, cell-based, Canis lupus familiaris; conditions: dog
# Cytochrome P450 2D6 = Cytochrome P450 2D6 (Homo sapiens, UniProt P10635)
# Cytochrome P450 2C19 = Cytochrome P450 2C19 (Homo sapiens, UniProt P33261)
# [3] = Octanol-aqueous phosphate buffer distribution coefficient, log D of the compound at pH 7.4 after 1 hr by LC/MS/MS analysis; assay type: physicochemical
# Cytochrome P450 3A4 [4] = target: T1, Cytochrome P450 3A4 (Homo sapiens, UniProt P08684); experiment: Time dependent inhibition of CYP3A4 in human liver microsomes assessed as substrate AUC shift using midazolam as substrate; assay type: ADME; set-up: scale not given: the % may be the effect or the level left
# Cytochrome P450 3A4 [5] = target: T1, Cytochrome P450 3A4; experiment: Time dependent inhibition of CYP3A4 in human liver microsomes assessed as substrate AUC shift using testosterone as substrate; assay type: ADME; set-up: scale not given: the % may be the effect or the level left
# Cytochrome P450 1A2 = target: T2, Cytochrome P450 1A2 (Homo sapiens, UniProt P05177)
# T2 sequence (P05177 whole entry): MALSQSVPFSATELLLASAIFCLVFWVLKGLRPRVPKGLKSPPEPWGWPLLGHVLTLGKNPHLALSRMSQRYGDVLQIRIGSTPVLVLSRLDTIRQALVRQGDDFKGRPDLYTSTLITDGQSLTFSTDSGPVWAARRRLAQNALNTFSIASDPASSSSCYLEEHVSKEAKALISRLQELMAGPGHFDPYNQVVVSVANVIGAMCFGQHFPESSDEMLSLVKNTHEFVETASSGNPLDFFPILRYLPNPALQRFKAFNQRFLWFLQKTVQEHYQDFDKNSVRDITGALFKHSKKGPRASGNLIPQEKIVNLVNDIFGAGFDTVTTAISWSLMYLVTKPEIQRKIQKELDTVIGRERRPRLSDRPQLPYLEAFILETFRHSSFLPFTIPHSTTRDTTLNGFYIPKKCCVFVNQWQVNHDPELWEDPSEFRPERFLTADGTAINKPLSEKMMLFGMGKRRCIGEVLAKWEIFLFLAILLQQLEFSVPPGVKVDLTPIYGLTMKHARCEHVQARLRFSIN
# Chain of Cytochrome P450 2C9 (P11712 whole entry): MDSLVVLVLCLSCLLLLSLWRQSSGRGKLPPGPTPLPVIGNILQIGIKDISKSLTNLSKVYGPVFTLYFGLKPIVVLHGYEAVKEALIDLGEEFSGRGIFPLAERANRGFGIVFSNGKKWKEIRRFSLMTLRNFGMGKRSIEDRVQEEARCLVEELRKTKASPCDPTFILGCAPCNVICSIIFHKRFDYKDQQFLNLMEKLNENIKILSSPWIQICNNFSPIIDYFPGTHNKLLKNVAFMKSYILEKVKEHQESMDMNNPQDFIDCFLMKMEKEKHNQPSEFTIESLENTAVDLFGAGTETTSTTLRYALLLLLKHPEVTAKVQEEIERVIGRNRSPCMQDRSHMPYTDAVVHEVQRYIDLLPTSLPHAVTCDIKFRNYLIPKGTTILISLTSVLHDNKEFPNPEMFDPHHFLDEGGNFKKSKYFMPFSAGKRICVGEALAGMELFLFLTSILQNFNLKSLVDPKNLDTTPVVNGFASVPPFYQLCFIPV
# T1 sequence (P08684 whole entry): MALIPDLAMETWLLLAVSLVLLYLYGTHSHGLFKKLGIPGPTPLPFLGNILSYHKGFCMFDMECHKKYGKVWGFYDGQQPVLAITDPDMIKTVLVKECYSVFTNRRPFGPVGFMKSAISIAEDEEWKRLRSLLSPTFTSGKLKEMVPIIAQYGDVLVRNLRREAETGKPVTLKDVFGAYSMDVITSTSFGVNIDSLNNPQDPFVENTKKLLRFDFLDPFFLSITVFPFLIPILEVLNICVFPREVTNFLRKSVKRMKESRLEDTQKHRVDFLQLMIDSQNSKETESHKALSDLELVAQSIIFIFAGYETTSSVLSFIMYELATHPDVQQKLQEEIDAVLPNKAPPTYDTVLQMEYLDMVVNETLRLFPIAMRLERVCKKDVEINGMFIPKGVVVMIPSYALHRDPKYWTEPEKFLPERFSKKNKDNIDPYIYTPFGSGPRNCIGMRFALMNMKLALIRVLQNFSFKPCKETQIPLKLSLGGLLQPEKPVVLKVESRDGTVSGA
# Chain of Cytochrome P450 2C19 (P33261 whole entry): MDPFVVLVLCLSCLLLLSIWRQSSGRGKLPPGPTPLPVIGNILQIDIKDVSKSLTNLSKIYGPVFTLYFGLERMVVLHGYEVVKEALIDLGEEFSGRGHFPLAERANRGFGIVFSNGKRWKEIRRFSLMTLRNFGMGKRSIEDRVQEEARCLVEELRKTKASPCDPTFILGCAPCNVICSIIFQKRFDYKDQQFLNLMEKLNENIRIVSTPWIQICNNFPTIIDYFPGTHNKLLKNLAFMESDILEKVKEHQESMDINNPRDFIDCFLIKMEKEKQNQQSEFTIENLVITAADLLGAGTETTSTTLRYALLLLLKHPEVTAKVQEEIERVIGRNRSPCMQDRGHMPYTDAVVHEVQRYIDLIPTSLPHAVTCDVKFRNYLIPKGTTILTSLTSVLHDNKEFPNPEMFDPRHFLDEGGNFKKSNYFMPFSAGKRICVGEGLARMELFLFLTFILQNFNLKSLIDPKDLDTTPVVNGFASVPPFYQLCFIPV
# Chain of Cytochrome P450 2D6 (P10635 whole entry): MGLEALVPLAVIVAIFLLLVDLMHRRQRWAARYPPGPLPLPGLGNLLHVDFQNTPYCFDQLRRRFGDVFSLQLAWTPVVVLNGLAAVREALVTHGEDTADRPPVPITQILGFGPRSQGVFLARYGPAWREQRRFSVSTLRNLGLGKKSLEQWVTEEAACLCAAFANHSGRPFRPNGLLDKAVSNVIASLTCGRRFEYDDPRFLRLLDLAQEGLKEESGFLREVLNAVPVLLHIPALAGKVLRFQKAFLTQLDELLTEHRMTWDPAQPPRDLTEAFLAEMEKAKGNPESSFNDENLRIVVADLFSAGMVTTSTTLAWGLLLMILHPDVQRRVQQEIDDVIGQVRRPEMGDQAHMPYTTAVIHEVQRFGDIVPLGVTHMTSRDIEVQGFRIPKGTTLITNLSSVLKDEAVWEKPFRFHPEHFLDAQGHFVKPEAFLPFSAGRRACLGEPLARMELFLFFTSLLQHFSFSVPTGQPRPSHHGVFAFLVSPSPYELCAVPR
Structure (SMILES),IC50 (Cytochrome P450 2C9) [µM],Papp B→A at 10 µM [1] [×10⁻⁶ cm/s],Papp A→B at 10 µM [2] [×10⁻⁶ cm/s],also measured
CC(C)(C)NC(=O)N1CCC2(CC1)CC2CNC(=O)N1Cc2ccncc2C1 (racemic),> 10,,,
Nc1cc2c(cn1)CN(C(=O)NCc1ccc(S(=O)(=O)c3ccccc3)cc1)C2,> 10,,,
Nc1cc2cc(C(=O)NCc3ccc(S(=O)(=O)c4ccccc4)cc3)oc2cn1,3.9,,,
Cc1nn(C)cc1C(=O)N1CCC2(CC1)CC2CNC(=O)N1Cc2ccncc2C1 (racemic),,1.1,0.2,
CC1(CC(=O)N2CCC3(CC2)CC3CNC(=O)N2Cc3ccncc3C2)COC1 (racemic),> 10,4,1.4,
O=C(/C=C/c1cccnc1)NCCCCC1CCN(C(=O)c2ccccc2)CC1 [DAPORINAD],3.6,,,IC50 (Cytochrome P450 2D6): > 10 µM; IC50 (Cytochrome P450 2C19): > 10 µM
O=C(NCC1CC12CCN(CCc1ccccc1)CC2)N1Cc2ccncc2C1 (racemic),> 10,,,
[2H]C1([2H])c2ccncc2C([2H])([2H])N1C(=O)NCC1CC12CCN(C(=O)OC1(C)COC1)CC2 (racemic),> 10,,,
CS(=O)(=O)c1ccc(CNC(=O)c2cc3cnccc3[nH]2)cc1,0.2,,,logD at 1 h [3]: 0.8
CC(C)(C)OC(=O)N1CCC2(CCC(CNC(=O)c3cc4cnccc4[nH]3)OC2)CC1 (racemic),> 10,,,
O=C(NCc1ccc(C(=O)N2CCCC2)cc1)c1cc2cnccc2[nH]1,0.45,,,logD at 1 h [3]: 1.6
Nc1ccc(CNC(=O)Nc2ccc(S(=O)(=O)c3ccccc3)cc2)cn1,,5.5,3,Activity (Cytochrome P450 3A4 [4]): 34%; logD at 1 h [3]: 2.7; Activity (Cytochrome P450 3A4 [5]): 45%
NS(=O)(=O)c1ccc(CNC(=O)c2cc3cnccc3[nH]2)cc1,0.34,,,logD at 1 h [3]: 0.6
Cc1nn(C)c(C)c1C(=O)N1CCC2(CC1)CC2CNC(=O)N1Cc2ccncc2C1 (racemic),> 10,1.9,0.2,
CC1(CC(=O)N2CCC3(CC2)CC3CNC(=O)N2Cc3ccncc3C2)CCOCC1 (racemic),> 10,9.1,1,
Cc1nc(C)c(C(=O)N2CCC3(CC2)CC3CNC(=O)N2Cc3ccncc3C2)s1 (racemic),,11,1.4,
CC(C)(C)OC(=O)N1CCCC(CCNC(=O)c2cc3cnccc3[nH]2)C1 (racemic),3.4,,,
N#CN=C(NCCCCCCOc1ccc(Cl)cc1)Nc1ccncc1 [CHS-828],,,,IC50 (Cytochrome P450 2C19): 0.63 µM; IC50 (Cytochrome P450 1A2): > 10 µM
CC(C)(C)OC(=O)N1CCC(CCNC(=O)c2cc3cnccc3[nH]2)CC1,> 10,,,
O=C(CCC(F)(F)F)N1CCC2(CC1)CC2CNC(=O)N1Cc2ccncc2C1 (racemic),> 10,,,
O=C(NCC1CC12CCN(C(=O)c1ccccc1)CC2)N1Cc2ccncc2C1 (racemic),> 10,19,7.9,
CC1(OC(=O)N2CCC3(CC2)CC3CNC(=O)N2Cc3ccncc3C2)CCC1 (racemic),> 10,12,15,
CC1(OC(=O)N2CCC3(CC2)CC3CNC(=O)N2Cc3ccncc3C2)COC1 (racemic),> 10,16,11,
CCOC(=O)N1CCC2(CC1)CC2CNC(=O)N1Cc2ccncc2C1 (racemic),> 10,,,
O=C(NCc1ccc(S(=O)(=O)C2CCCCC2)cc1)N1Cc2ccncc2C1,,,,logD at 1 h [3]: 2
CC(C)CNC(=O)c1cc2cnccc2[nH]1,> 10,,,logD at 1 h [3]: 1.7

Structure (SMILES),IC50 (Cytochrome P450 2C9) [µM],Papp B→A at 10 µM [1] [×10⁻⁶ cm/s],Papp A→B at 10 µM [2] [×10⁻⁶ cm/s],also measured
O=C(CC1CCOCC1)N1CCC2(CC1)CC2CNC(=O)N1Cc2ccncc2C1 (racemic),,7,1.4,
O=C(NCc1cccnc1)Nc1ccc(S(=O)(=O)c2ccccc2)cc1,,11,3.1,logD at 1 h [3]: 2.7
CC(C)(C)CC(=O)N1CCC2(CC1)CC2CNC(=O)N1Cc2ccncc2C1 (racemic),> 10,13,9.2,
CC(C)(C)OC(=O)N1CCC2(CC1)CC2CNC(=O)c1cc2cnccc2[nH]1 (racemic),> 10,14,15,
CC(C)(C)OC(=O)N1CCC2(CC1)CC2CNC(=O)c1cc2ccncc2o1 (racemic),> 10,15,16,
CN(C)C(=O)c1cccc(COc2ccc(CNC(=O)c3cc4cnccc4[nH]3)cc2)c1,0.4,,,logD at 1 h [3]: 2.5
O=C(NCc1ccc(S(=O)(=O)c2cc(F)cc(F)c2)cn1)c1cc2ccncc2o1,,,,logD at 1 h [3]: 2.6
Cc1ccc(CNC(=O)Nc2ccc(S(=O)(=O)c3ccccc3)cc2)cn1,,,,logD at 1 h [3]: 2.4
Nc1cc2[nH]c(C(=O)NCc3ccc(S(=O)(=O)c4cc(F)cc(F)c4)cc3)cc2cn1,> 10,,,Activity (Cytochrome P450 3A4 [4]): 83%; Activity (Cytochrome P450 3A4 [5]): 69%
Cc1c(C(=O)N2CCC3(CC2)CC3CNC(=O)N2Cc3ccncc3C2)cnn1C (racemic),,2.6,0.3,
O=C(NCc1ccc([S@@+]([O-])c2cc(F)cc(F)c2)cn1)c1cc2ccncc2o1,,9,21,logD at 1 h [3]: 2
O=C(NCc1ccccc1)c1cc2cnccc2[nH]1,> 10,,,logD at 1 h [3]: 2.2
CC1(O)CC(CC(=O)N2CCC3(CC2)CC3CNC(=O)N2Cc3ccncc3C2)C1 (racemic),,1,0.2,
CC(C)(C)OC(=O)N1CCC2(CC1)CC2CNC(=O)c1cnc2nccn2c1 (racemic),> 10,,,
Cc1nc(C)c(C(=O)N2CCC3(CC2)CC3CNC(=O)N2Cc3ccncc3C2)o1 (racemic),,9,1.4,
CC1(OC(=O)N2CCC3(CC2)C[C@H]3CNC(=O)N2Cc3ccncc3C2)COC1,,15,11,
O=C(NCc1cccnc1)Nc1ccc(S(=O)(=O)N2CCC3(CCNC3)CC2)cc1,,0.43,,logD at 1 h [3]: < -0.5
O=C(NCc1ccc(NS(=O)(=O)C2CCCC2)cc1)c1cc2cnccc2[nH]1,0.36,,,logD at 1 h [3]: 2.5
CC(C)OC(=O)N1CCC2(CC1)CC2CNC(=O)N1Cc2ccncc2C1 (racemic),> 10,14,13,
O=C(NCC1CCCCC1)c1cc2cnccc2[nH]1,> 10,,,logD at 1 h [3]: 3.1
Cc1ccncc1C(=O)N1CCC2(CC1)CC2CNC(=O)N1Cc2ccncc2C1 (racemic),,2.7,0.3,
CN1CCC(c2ccc(C(=O)N3CCC4(CC3)CC4CNC(=O)N3Cc4ccncc4C3)cc2)CC1 (racemic),> 10,1,0.2,
CC(C)CC(=O)N1CCC2(CC1)CC2CNC(=O)N1Cc2ccncc2C1 (racemic),> 10,14,7.3,
O=C(CCC1CCOCC1)N1CCC2(CC1)CC2CNC(=O)N1Cc2ccncc2C1 (racemic),> 10,11,1.6,
CC(C)(C)OC(=O)N1CCC2(CC1)CC2CNC(=O)c1cc2ccncc2s1 (racemic),7.2,,,
